These results are taken from US20230265151A1, “GIP/GLP1 CO-AGONIST COMPOUNDS” (priority 2020, published 2023).

One experiment has as its target T1, hGCGR (Homo sapiens, UniProt P47871).
T1 construct: expressed in transfected cells
Briefly: Functional cAMP formation (HTRF) in HEK-293 clonal cells expressing hGCGR, 0.1% bovine casein, without or with 1.0% human serum albumin. The settings on record: read-out: hGCGR EC50, nM (SEM, n). Type of experiment: cell-based. The method, boiled down:
(§1)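 Cells were stimulated with peptide for 30 min at 37° C, then lysed in buffer carrying cAMP-d2 and anti-cAMP Eu3+-cryptate for a competitive HTRF read after at least 60 min at room temperature. The 665/620 nm ratio was converted to nM cAMP against a standard curve.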

The next experiment addresses T2, hGIPR (Homo sapiens, UniProt P48546).
T2 construct: expressed in transfected cells
T2 sequence (P48546 22-466): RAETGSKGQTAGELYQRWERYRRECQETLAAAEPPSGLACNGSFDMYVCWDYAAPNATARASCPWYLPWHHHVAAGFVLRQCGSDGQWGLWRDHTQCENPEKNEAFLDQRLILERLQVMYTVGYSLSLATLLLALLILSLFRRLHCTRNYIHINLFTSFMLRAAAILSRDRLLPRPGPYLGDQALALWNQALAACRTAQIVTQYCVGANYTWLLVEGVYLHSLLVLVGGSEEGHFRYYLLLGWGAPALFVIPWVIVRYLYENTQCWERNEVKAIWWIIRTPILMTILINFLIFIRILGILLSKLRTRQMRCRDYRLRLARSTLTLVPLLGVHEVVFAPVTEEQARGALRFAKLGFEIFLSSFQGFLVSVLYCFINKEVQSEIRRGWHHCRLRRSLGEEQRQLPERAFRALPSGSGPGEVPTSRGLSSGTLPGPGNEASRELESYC
Nature of the experiment: Functional cAMP formation (HTRF) in HEK-293 clonal cells expressing hGIPR, 0.1% bovine casein, without or with 1.0% human serum albumin. Format: cell-based. The note with it: for Emax: read-out: hGIPR Emax, % ± SEM; for EC50: read-out: hGIPR EC50, nM (SEM, n). A digest of the protocol: as §1
In general terms: Changes in cAMP serve as a functional read-out for many G protein-coupled receptors.

The target of experiment [1] is T3, human Gcg receptor (hGcgR) (Homo sapiens, UniProt P47871).
T3 construct: expressed in transfected cells; crude membranes
Nature of the experiment: [125I]-Glucagon binding, SPA with membranes of HEK293 cells expressing hGcgR. The note with it: human GcgR; geometric mean (SEM, n); read-out: Binding Affinity Ki, nM (SEM, n) hGCGR.

For another experiment, the target named is hGLP-1R (Homo sapiens, UniProt P43220). Nature of the experiment: Functional cAMP formation (HTRF) in HEK-293 clonal cells expressing hGLP-1R, 0.1% bovine casein, without or with 1.0% human serum albumin. Type of experiment: cell-based. More on the design: expressed in transfected cells. The settings on record: for Emax: read-out: hGLP-1R Emax, % ± SEM; for EC50: read-out: hGLP-1R EC50, nM (SEM, n). A digest of the protocol:
as §1

Where [2] appears, read: 0.1% bovine casein and 1.0% human serum albumin, 37° C., geometric mean.
The mark [3] stands for this setting: cAMP, incubated at 37° C., 0.1% bovine casein (no human serum albumin), geometric mean.
Where [4] appears, read: HEK293, 0.1% bovine casein and 1.0% human serum albumin, 37° C., percent of maximal response to GIP(1-42)NH2.
The mark [5] stands for this setting: HEK293, percent of maximal response to GIP(1-42)NH2, 37° C., 0.1% bovine casein, arithmetic mean.
The mark [6] stands for this setting: HEK293, 0.1% bovine casein and 1.0% human serum albumin, 37° C., percent of maximal response to GLP-1(7-36)NH2.
The mark [7] stands for this setting: HEK293, percent of maximal response to GLP-1(7-36)NH2, 37° C., 0.1% bovine casein, arithmetic mean.
Setting [8] is: cAMP, 37° C., 0.1% bovine casein (no human serum albumin), geometric mean.
Setting [9] is: cAMP, 37° C., 0.1% bovine casein and 1.0% human serum albumin, geometric mean (SEM, n).

Each structure is given as a SMILES string. Read-outs that look alike come from different tables or passages of the source.

T1 sequence (P47871 26-477): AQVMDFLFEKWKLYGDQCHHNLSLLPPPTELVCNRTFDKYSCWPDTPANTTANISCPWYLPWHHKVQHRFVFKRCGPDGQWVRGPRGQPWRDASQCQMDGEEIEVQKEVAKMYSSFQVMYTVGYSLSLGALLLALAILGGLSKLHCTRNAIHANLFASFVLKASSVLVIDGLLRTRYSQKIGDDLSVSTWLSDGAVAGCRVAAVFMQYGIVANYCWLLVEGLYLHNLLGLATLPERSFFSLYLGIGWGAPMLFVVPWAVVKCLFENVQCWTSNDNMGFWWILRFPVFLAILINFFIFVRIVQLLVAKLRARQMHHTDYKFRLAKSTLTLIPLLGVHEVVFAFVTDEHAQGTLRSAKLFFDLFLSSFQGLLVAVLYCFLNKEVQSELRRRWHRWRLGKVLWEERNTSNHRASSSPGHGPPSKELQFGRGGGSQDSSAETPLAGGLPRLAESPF
T3 sequence (P47871 26-477): as above
Sequence of hGLP-1R (P43220 24-463): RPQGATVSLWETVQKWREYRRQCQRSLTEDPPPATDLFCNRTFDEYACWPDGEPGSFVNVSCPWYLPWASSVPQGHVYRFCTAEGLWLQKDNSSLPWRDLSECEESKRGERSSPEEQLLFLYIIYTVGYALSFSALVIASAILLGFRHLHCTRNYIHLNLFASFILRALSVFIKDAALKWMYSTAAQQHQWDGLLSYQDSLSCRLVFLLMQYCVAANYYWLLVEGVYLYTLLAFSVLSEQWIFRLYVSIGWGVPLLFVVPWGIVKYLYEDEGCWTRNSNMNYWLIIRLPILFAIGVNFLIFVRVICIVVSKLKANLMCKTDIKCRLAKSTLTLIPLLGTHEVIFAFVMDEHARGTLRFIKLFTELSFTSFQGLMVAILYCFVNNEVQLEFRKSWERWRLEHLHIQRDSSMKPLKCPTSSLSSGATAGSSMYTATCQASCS

As to `CC[C@H](C)[C@H](NC(=O)[C@H](CC(C)C)NC(=O)[C@](C)(Cc1ccc(O)cc1)NC(=O)[C@@H](CCC(=O)O)NC(=O)[C@@H](NC(=O)[C@H](Cc1cccc(Cl)c1)NC(=O)[C@H](CCC(=O)O)NC(=O)C(C)(C)NC(=O)[C@H](CCC(N)=O)NC(=O)[C@H](C)NC(=O)[C@H](CCCCNC(=O)COCCOCCNC(=O)COCCOCCNC(=O)CC[C@H](NC(=O)CCCCCCCCCCCCC(=O)O)C(=O)O)NC(=O)[C@H](CCCN)NC(=O)[C@H](CC(=O)O)NC(=O)[C@H](CC(C)C)NC(=O)[C@](C)(CC(C)C)NC(=O)[C@@H](NC(=O)[C@H](CO)NC(=O)[C@H](Cc1ccncc1)NC(=O)[C@H](CC(=O)O)NC(=O)[C@H](CO)NC(=O)[C@@H](NC(=O)[C@](C)(Cc1ccccc1F)NC(=O)[C@@H](NC(=O)CNC(=O)[C@H](CCC(=O)O)NC(=O)C(C)(C)NC(=O)[C@@H](N)Cc1ccc(O)cc1)[C@@H](C)O)[C@@H](C)O)[C@@H](C)CC)[C@@H](C)CC)C(=O)N[C@@H](CCC(=O)O)C(=O)NCC(=O)NCC(=O)N[C@@H](CCCCNC(=O)COCCOCCNC(=O)COCCOCCNC(=O)CC[C@H](NC(=O)CCCCCCCCCCCCC(=O)O)C(=O)O)C(=O)N[C@@H](CO)C(=O)N[C@@H](CO)C(=O)NCC(=O)N[C@@H](C)C(=O)N1CCC[C@H]1C(=O)N1CCC[C@H]1C(=O)N1CCC[C@H]1C(=O)N[C@@H](CO)C(N)=O` [Example 62], the results for the EC50 on hGCGR (setting [2]), at hGCGR (setting [3]) and on hGIPR (setting [3]) were > 9950 nM, > 9950 nM and 0.0211 nM, respectively. For the same molecule, the Emax – broadly, the greatest response seen or fitted, relative to the assay's reference – was determined as 94.3 ± 0.785% on hGIPR (setting [4]), 96.1 ± 2.64% on hGIPR (setting [5]), 85.8 ± 3.31% on hGLP-1R (setting [6]) and 99.4 ± 5.83% at hGLP-1R (setting [7]). In addition, the Ki – broadly, the dissociation constant of the complex between target and ligand, obtained from inhibition or displacement – in experiment [1] is > 4780 nM.

`CC[C@H](C)[C@H](NC(=O)[C@H](CC(C)C)NC(=O)[C@](C)(Cc1ccc(O)cc1)NC(=O)[C@@H](CCC(=O)O)NC(=O)[C@@H](NC(=O)[C@H](Cc1ccccc1)NC(=O)[C@H](CCC(=O)O)NC(=O)C(C)(C)NC(=O)[C@H](CCC(N)=O)NC(=O)[C@H](C)NC(=O)[C@H](CCCCNC(=O)CC[C@H](NC(=O)COCCOCCNC(=O)COCCOCCNC(=O)CCCCCCCCCCCCC(=O)O)C(=O)O)NC(=O)[C@H](CCCN)NC(=O)[C@H](CC(=O)O)NC(=O)[C@H](CC(C)C)NC(=O)[C@](C)(CC(C)C)NC(=O)[C@@H](NC(=O)[C@H](CO)NC(=O)[C@H](Cc1ccncc1)NC(=O)[C@H](CC(=O)O)NC(=O)[C@H](CO)NC(=O)[C@@H](NC(=O)[C@](C)(Cc1ccccc1F)NC(=O)[C@@H](NC(=O)CNC(=O)[C@H](CCC(=O)O)NC(=O)C(C)(C)NC(=O)[C@@H](N)Cc1ccc(O)cc1)[C@@H](C)O)[C@@H](C)O)[C@@H](C)CC)[C@@H](C)CC)C(=O)N[C@@H](CCC(=O)O)C(=O)NCC(=O)NCC(=O)N[C@@H](CCCCNC(=O)CC[C@H](NC(=O)COCCOCCNC(=O)COCCOCCNC(=O)CCCCCCCCCCCCC(=O)O)C(=O)O)C(=O)N[C@@H](CO)C(=O)N[C@@H](CO)C(=O)NCC(=O)N[C@@H](C)C(=O)N1CCC[C@H]1C(=O)N1CCC[C@H]1C(=O)N1CCC[C@H]1C(=O)N[C@@H](CO)C(N)=O` [Example 41]: the EC50 (commonly the concentration giving half of the maximal effect) at hGCGR (setting [2]) was > 9950 nM; at hGCGR (setting [3]), > 9950 nM; on hGIPR (setting [2]), 0.405 nM; on hGIPR (setting [3]), 0.0108 nM; on hGLP-1R (setting [2]), 27.2 nM; on hGLP-1R (setting [3]), 0.691 nM. Moreover, the Emax on hGIPR (setting [4]) worked out at 88.5 ± 0.638%. Moreover, in experiment [1], the Ki is > 957 nM.

In the case of `CC[C@H](C)[C@H](NC(=O)[C@H](CC(C)C)NC(=O)[C@](C)(Cc1ccc(O)cc1)NC(=O)[C@@H](CCC(=O)O)NC(=O)[C@@H](NC(=O)[C@H](Cc1ccccc1)NC(=O)[C@H](CCC(=O)O)NC(=O)C(C)(C)NC(=O)[C@H](CCC(N)=O)NC(=O)[C@H](C)NC(=O)[C@H](CCCCNC(=O)COCCOCCNC(=O)COCCOCCNC(=O)CC[C@H](NC(=O)CCCCCCCCCCCCC(=O)O)C(=O)O)NC(=O)[C@H](CCCN)NC(=O)[C@H](CC(=O)O)NC(=O)[C@H](CC(C)C)NC(=O)[C@](C)(Cc1ccccc1)NC(=O)[C@@H](NC(=O)[C@H](CO)NC(=O)[C@H](Cc1ccncc1)NC(=O)[C@H](CC(=O)O)NC(=O)[C@H](CO)NC(=O)[C@@H](NC(=O)[C@](C)(Cc1ccccc1)NC(=O)[C@@H](NC(=O)CNC(=O)[C@H](CCC(=O)O)NC(=O)C(C)(C)NC(=O)[C@@H](N)Cc1ccc(O)cc1)[C@@H](C)O)[C@@H](C)O)[C@@H](C)CC)[C@@H](C)CC)C(=O)N[C@@H](CCC(=O)O)C(=O)NCC(=O)NCC(=O)N[C@@H](CCCCNC(=O)COCCOCCNC(=O)COCCOCCNC(=O)CC[C@H](NC(=O)CCCCCCCCCCCCC(=O)O)C(=O)O)C(=O)N[C@@H](CO)C(=O)N[C@@H](CO)C(=O)NCC(=O)N[C@@H](C)C(=O)N1CCC[C@H]1C(=O)N1CCC[C@H]1C(=O)N1CCC[C@H]1C(=O)N[C@@H](CO)C(N)=O` [Example 46], the EC50 on hGCGR (setting [2]) and at hGCGR (setting [3]) was > 9950 nM throughout. Besides, the Emax on hGIPR (setting [4]) turned out to be 73.3%; at hGIPR (setting [5]), 89.5 ± 2.64%; on hGLP-1R (setting [6]), 117%; on hGLP-1R (setting [7]) it was 79.2 ± 1.23%. In experiment [1], the Ki is > 966 nM.

Regarding `CC[C@H](C)[C@H](NC(=O)[C@H](CC(C)C)NC(=O)[C@](C)(Cc1ccc(O)cc1)NC(=O)[C@@H](CCC(=O)O)NC(=O)[C@@H](NC(=O)[C@H](Cc1ccccc1)NC(=O)[C@H](CCC(=O)O)NC(=O)C(C)(C)NC(=O)[C@H](CCC(N)=O)NC(=O)[C@H](C)NC(=O)[C@H](CCCCNC(=O)COCCOCCNC(=O)CC[C@H](NC(=O)CCCCCCCCCCCCC(=O)O)C(=O)O)NC(=O)[C@H](CCCN)NC(=O)[C@H](CC(=O)O)NC(=O)[C@H](CC(C)C)NC(=O)[C@](C)(CC(C)C)NC(=O)[C@@H](NC(=O)C(C)(C)NC(=O)[C@H](Cc1ccncc1)NC(=O)[C@H](CC(=O)O)NC(=O)[C@H](CO)NC(=O)[C@@H](NC(=O)[C@](C)(Cc1ccccc1F)NC(=O)[C@@H](NC(=O)CNC(=O)[C@H](CCC(=O)O)NC(=O)C(C)(C)NC(=O)[C@@H](N)Cc1ccc(O)cc1)[C@@H](C)O)[C@@H](C)O)[C@@H](C)CC)[C@@H](C)CC)C(=O)N[C@@H](CCC(=O)O)C(=O)NCC(=O)NCC(=O)N1CCC[C@H]1C(=O)N[C@@H](CO)C(=O)N[C@@H](CO)C(=O)NCC(=O)N[C@@H](C)C(=O)N1CCC[C@H]1C(=O)N1CCC[C@H]1C(=O)N1CCC[C@H]1C(=O)N[C@@H](CO)C(=O)N[C@@H](CCCCNC(=O)COCCOCCNC(=O)CC[C@H](NC(=O)CCCCCCCCCCCCC(=O)O)C(=O)O)C(N)=O` [Example 338], the EC50 at hGCGR (setting [8]) was > 10100 nM; at hGCGR (setting [9]), > 10100 nM; at hGIPR (setting [8]), 0.0157 nM; on hGIPR (setting [9]) it was 1.24 nM; on hGLP-1R (setting [8]) it was 0.468 nM; at hGLP-1R (setting [9]) it was 36.6 nM. In addition, the Emax on hGIPR (HEK293, cAMP, 37° C., 0.1% bovine casein and 1.0% human serum albumin, percent of maximal response to GIP(1-42)NH2) worked out at 83.9%; at hGLP-1R (HEK293, cAMP, 37° C., 0.1% bovine casein, percent of maximal response to GLP-1(7-36)NH2, arithmetic mean) it was 109%. Further, the inhibition constant (Ki) in experiment [1] was > 957 nM.
